Experimental data published in patent US9856427B2, “Method to convert fermentation mixture into fuels” (The Regents of the University of California, priority 2011, dated 2018).

System: Clostridium acetobutylicum
Test: Toxicity study: growth inhibition and cell viability
Format: cell-based
Settings: up to 1:1 volume ratios of extractant to media
Description: Growth inhibition and cell viability was examined in a study using up to 1:1 volume ratios of extractant to media.

`CCCC(=O)OCC(COC(=O)CCC)OC(=O)CCC` [glyceryl tributyrate] was tested, and the “toxicity to Clostridium acetobutylicum (growth inhibition and cell viability)” value was “non-toxic”.
